“Also recorded” adds a separate entry of the source.
Experiments:
Raw264.7 cells = assay: Anti-inflammatory activity in LPS-induced Raw264.7 cell inflammation model; type: cell-based, rat
Procedure: Raw264.7 37° C., 5% CO2 RPMI-1640+10% FBS+1% Pen Strep. Finally, the cell was cultured in an incubator until 80% of the cells adhere to the wall. The cells in logarithmic growth phase were taken and adjusted to the appropriate cell density in a 96-well plate after digestion with 0.25% trypsin. After adhering to the wall in monolayer, the cell was cultured in a synchronized medium for 12 hours. After entering the quiescent period, except for the blank control group, 1 mL of LPS (1 μg/mL) was used as a modeling agent in other groups to induce the cell inflammation model in the cell in each group. Meanwhile, drug treatment is carried out: 1 mL of culture medium was added to the model group, 1 mL of liquid drug with corresponding concentration was added to the drug administration group (triptolide 50, 100, 150, 200 μg/mL dose group), and 2 ml of culture medium was directly added to the blank control group. Western blot, qPCR, ELISA and other methods were used to detect the expression levels of inflammation-related proteins, genes, cytokines, the expressions of NF-κB transcription-related factors, and the expressions of IL-6, IL-10, TNF-α and other inflammatory cytokines in different treatment groups.

[1] = tested on: normal T and B lymphocytes; assay: Immunosuppressive activity: inhibition of normal T/B lymphocyte increment (MTT); type: cell-based, rat; settings: FIG. 4
Procedure: The rats were sacrificed by neck amputation and soaked in 75% ethanol. The spleens of the rats were taken out in an ultra-clean bench, washed in DPBS for 3 times, fully moistened, 200 mesh gauze was placed on a dish (35 mm diameter), it is evenly ground in one direction by a piston of a 10 mL syringe, the spleen was moistened with DPBS while grinding. The collected lymphocyte suspension was centrifuged at 1500 rpm for 3 min, and 7 mL of erythrocyte lysate was added to each spleen suspension. After acting at room temperature for 30 min, the cells were centrifuged at 1500 rpm for 3 min. After discarding supernatant, the cells were washed with DPBS for 3 times to remove excess serum, added with […] of 70% Percoll to the bottom layer of 15 mL centrifuge tube and […] of 40% Percoll to the upper layer of 15 mL centrifuge tube, then centrifuged 800 g at room temperature for 20 min on a horizontal centrifuge.

podocyte cell line MPCS = assay: Protection of podocytes from ADM-induced apoptosis; type: cell-based, rat
Procedure: Rat immortalized podocyte cell line MPCS is presented by nephrology department of Guangdong provincial hospital of Traditional Chinese Medicine. The treatment methods of […] are presented as follows: Western blot, IFC, qPCR, ELISA and other methods are used to detect the expression levels of inflammation-related proteins, genes and cytokines in different treatment groups. The podocyte cell is temperature sensitive cell, increases at 33° C. RPMI-1640+10% FBS+1% Pen Strep+10 U/mL γ-IFN, and differentiates at 37° C. RPMI-1640+10% FBS+1% Pen Strep medium for 10-14 days. […] The expression of podocaine membrane protein podocine and apoptosis-related gene Bax were detected by flow cytometry using FITC-labeled Annexin V and Propidium iodide (PI) to differentiate early apoptotic cells from late apoptotic cells and dead cells.

induced T/B lymphocyte = assay: Specific inhibition experiment: Con A- or LPS-induced T/B lymphocyte increment (MTT); type: cell-based, rat; settings: FIG. 5
Procedure: The pretreatment of lymphocytes in the specific inhibition experiment is the same as above. After lymphocytes inoculated into 96-well culture plates, drug was added. 200 μL of drug was added each to blank control group (culture medium only), T lymphocyte specific increment inducer Con A model group (5 μg/mL, corresponding model group) and B lymphocyte specific increment inducer LPS model group (5 μg/mL, corresponding model group). Con A administration group was firstly added multiple doses of T lymphocyte specific increment inducer Con A 100 μL ([…], corresponding model group) separately, and then added 100 μL of triptriolide (100, 200, 300, 400 μg/mL) with different concentrations separately. In LPS administration group, multiple doses of B lymphocyte specific increment inducer LPS 100 μL ([…], corresponding model group) were added respectively, and 100 μL of triptriolide (100, 200, 300, 400 μg/mL) with different concentrations were added respectively.

[2] = tested on: rat with ear swelling model; settings: Zheng Jiarun, et al., 1991; cited from earlier work

CC(C)[C@]1(O)[C@H](O)[C@@H]2O[C@]23[C@]2(O[C@H]2C[C@H]2C4=C(CC[C@@]23C)C(=O)OC4)[C@@H]1O [triptriolide]
effects of inflammatory factors TNF-α and IL-10 (Raw264.7 cells; FIGS. 7 and 8): effectively reduce | cytokine secretion in LPS-induced inflammatory injury model (Raw264.7 cells; LPS 1 μg/mL, FIG. 6): can improve cytokine secretion | expression of IL-10 (Raw264.7 cells; at high concentration): can be increased | inhibiting increment of normal T and B lymphocytes in vitro ([1]; 50, 100, 150, 200 μg/mL, 24 h, MTT): dose-dependent | cell activity of normal T and B lymphocytes ([1]; each administration group, p<0.05): significantly lower than that of the control group and model group | apoptosis of podocytes (podocyte cell line MPCS; 0.8 μg/mL ADM apoptosis model, FIGS. 9 to 11): attenuated | apoptosis of podocytes at high concentration (podocyte cell line MPCS; 0.8 μg/mL ADM, high concentration): upward trend | immunosuppressive effect (induced T/B lymphocyte; Con A-induced T vs LPS-induced B lymphocytes): lower immunosuppressive effect; also recorded: on T lymphocytes is significantly higher than that on B lymphocytes | cell activity of Con A- / LPS-induced lymphocytes (induced T/B lymphocyte; different concentrations, 24 h, MTT): higher than that of the blank control group, but lower than that of the model group | anti-inflammatory activity [2]: weak anti-inflammatory activity | immunosuppressive activity [2]: no immunosuppressive activity

— patent publication US10925913B2, “Low toxic tripterygium neoglycosides, preparation method and application thereof” (priority 2017, dated 2021)
